# Test results published in patent publication US4496551A (priority 1983, dated 1985).
# Tests used:
# Type in all cases: in vivo
# [1] = test system: Puccinia recondita var. tritici; assay: wheat leaf rust control on wheat seedlings; conditions: 100 ppm, sprayed day before inoculation
# Procedure: (§1) Compounds of this invention were dissolved in acetone in an amount equal to 6% of the final volume and then suspended at a concentration of 100 ppm in purified water containing 250 ppm of the surfactant TREM 014 (polyhydric alcohol esters). This suspension was sprayed to the point of run-off on wheat seedlings. The following day, the plants were inoculated with a spore suspension of Puccinia recondita var. tritici, causal agent of wheat leaf rust, and incubated in a saturated humidity chamber at 20° for 24 hours and then in a growth room for an additional 7 days, when disease ratings were made. Treated plants from successful treatments had few or no rust pustules while the untreated plants had numerous rust pustules on each leaf.
# Erysiphe cichoracearum = assay: cucumber powdery mildew control on cucumber seedlings; conditions: 7 days; for pest or weed control at 100 ppm: Golovinomyces cichoracearum, 168 h
# Procedure: Compounds of the previous examples were again dissolved in acetone in an amount equal to 6% of the final volume and then suspended at a concentration of 100 ppm in purified water containing 250 ppm of the surfactant TREM 014 (polyhydric alcohol esters). This suspension was sprayed to the point of run-off on cucumber seedlings. The following day, the plants were inoculated with a spore suspension of the fungus Erysiphe cichoracearum, causal agent of cucumber powdery mildew, and incubated in a growth room for 7 days. Disease ratings were then made. Treated plants from successful treatments had little or no powdery mildew in contrast to untreated plants which were covered with powdery mildew.
# Venturia inaequalis = assay: apple scab control on apple seedlings; conditions: 100 ppm; for pest or weed control at 100 ppm: Venturia inaequalis
# Procedure: as §1, with “apple” for “wheat”, “the fungus Venturia inaequalis,” for “Puccinia recondita var. tritici,”, “apple scab,” for “wheat leaf rust,”, “10-12 days.” for “7 days, when disease ratings were made.”, “apple scab lesions when compared to” for “rust pustules while the”, “which were covered with scab lesions.” for “had numerous rust pustules on each leaf.”
# Helminthosporium maydis = assay: southern corn leaf blight control on corn seedlings; conditions: for pest or weed control at 100 ppm: Bipolaris maydis, 168 h
# Procedure: Compounds of the previous example were again dissolved in acetone in an amount equal to 6% of the final volume and then suspended at a concentration of 100 ppm in purified water containing 250 ppm of the surfactant TREM 014 (polyhydric alcohol esters). This suspension was sprayed to the point of run-off on corn seedlings. The following day, the plants were inoculated with a spore suspension of Helminthosporium maydis, causal agent of southern corn leaf blight, and incubated in a saturated humidity chamber at 20° for 24 hours and then in a growth room for an additional 7 days, when disease ratings were made. Treated plants from successful treatments had few lesions while the untreated plants had numerous lesions on each leaf.
# Cercospora arachidicola = assay: peanut early leafspot control on peanut seedlings; conditions: for pest or weed control at 100 ppm: Mycosphaerella arachidis, 336 h
# Procedure: Compounds of the previous examples were again dissolved in acetone in an amount equal to 6% of the final volume and then suspended at a concentration of 100 ppm in purified water containing 250 ppm of the surfactant TREM 014 (polyhydric alcohol esters). This suspension was sprayed to the point of run-off on peanut seedlings. The following day, the plants were inoculated with a spore suspension of Cercospora arachidicola, causal agent of peanut early leafspot, and incubated in a saturated humidity chamber at 27° for 24 hours and then in a growth room for an additional 14 days, when disease ratings were made. Treated plants from successful treatments had few or no leafspots while the untreated plants had numerous leafspots on each leaf.
# Rhizoctonia solani = assay: rice sheath blight control on rice seedlings; conditions: 7 days; for pest or weed control at 100 ppm: Rhizoctonia solani, 168 h
# Procedure: Several compounds of the previous examples were again dissolved in acetone in an amount equal to 6% of the final volume and then suspended at a concentration of 100 ppm in purified water containing 250 ppm of the surfactant TREM 014 (polyhydric alcohol esters). This suspension was sprayed to the point of run-off on rice seedlings. The following day, the plants were inoculated with a mixture of bran and the mycelium of Rhizoctonia solani, causal agent of sheath blight of rice, and incubated in a growth room for 7 days. Disease ratings were then made. Treated plants from successful treatments had little sheath blight in contrast to untreated plants which were covered with sheath blight.
# Pyricularia oryzae = assay: whole plant or invertebrate; conditions: 168 h, read-out: % Control of Rice Blast
# Phytophthora infestans = assay: whole plant or invertebrate; conditions: for pest or weed control at 100 ppm: Phytophthora infestans, in Solanum lycopersicum, 168 h, read-out: % Control of Tomato Late Blight
smiles,measurement,setting,value
"C[Si](Cn1ccnc1)(c1ccccc1)c1ccc(Cl)cc1Cl (stereo not drawn) [(2,4-Dichlorophenyl)(1H-imidazol-1-ylmethyl)methyl(phenyl)silane]",pest or weed control at 100 ppm,[1],90%
same,pest or weed control at 100 ppm,Erysiphe cichoracearum,100%
same,pest or weed control at 100 ppm,Venturia inaequalis,80%
same,pest or weed control at 100 ppm,Helminthosporium maydis,0%
same,pest or weed control at 100 ppm,Cercospora arachidicola,100%
same,pest or weed control at 100 ppm,Rhizoctonia solani,0%
same,pest or weed control at 100 ppm,Pyricularia oryzae,0%
same,pest or weed control at 100 ppm,Phytophthora infestans,0%
CC(n1ccnc1)[Si](C)(c1ccc(F)cc1)c1ccc(F)cc1 (stereo not drawn) [bis(4-Fluorophenyl)methyl[1-(1H-imidazol-1-yl)ethyl]silane],pest or weed control at 100 ppm,[1],0%
same,pest or weed control at 100 ppm,Erysiphe cichoracearum,100%
same,pest or weed control at 100 ppm,Venturia inaequalis,100%
same,pest or weed control at 100 ppm,Cercospora arachidicola,0%
same,pest or weed control at 100 ppm,Rhizoctonia solani,90%
same,pest or weed control at 100 ppm,Pyricularia oryzae,0%
same,pest or weed control at 100 ppm,Phytophthora infestans,0%
C[Si](C)(Cn1ccnc1)c1ccc(Br)cc1 [(4-Bromophenyl)(1H-imidazol-1-ylmethyl)dimethylsilane],pest or weed control at 100 ppm,[1],0%
same,pest or weed control at 100 ppm,Erysiphe cichoracearum,100%
same,pest or weed control at 100 ppm,Venturia inaequalis,0%
same,pest or weed control at 100 ppm,Helminthosporium maydis,0%
same,pest or weed control at 100 ppm,Cercospora arachidicola,0%
same,pest or weed control at 100 ppm,Rhizoctonia solani,0%
same,pest or weed control at 100 ppm,Pyricularia oryzae,0%
same,pest or weed control at 100 ppm,Phytophthora infestans,30%
C[Si](Cn1ccnc1)(c1ccc(Br)cc1)c1ccc(Br)cc1 [[bis(4-Bromophenyl)](1H-imidazol-1-ylmethyl)methylsilane],pest or weed control at 100 ppm,[1],0%
same,pest or weed control at 100 ppm,Erysiphe cichoracearum,100%
same,pest or weed control at 100 ppm,Venturia inaequalis,50%
same,pest or weed control at 100 ppm,Helminthosporium maydis,0%
same,pest or weed control at 100 ppm,Cercospora arachidicola,50%
same,pest or weed control at 100 ppm,Rhizoctonia solani,0%
same,pest or weed control at 100 ppm,Pyricularia oryzae,80%
same,pest or weed control at 100 ppm,Phytophthora infestans,0%
COc1ccc([Si](C)(Cn2ccnc2)c2ccc(OC)cc2)cc1 [(1H-Imidazol-1-ylmethyl)[bis(4-methoxyphenyl)]methylsilane],pest or weed control at 100 ppm,[1],0%
same,pest or weed control at 100 ppm,Erysiphe cichoracearum,50%
same,pest or weed control at 100 ppm,Venturia inaequalis,50%
same,pest or weed control at 100 ppm,Helminthosporium maydis,0%
same,pest or weed control at 100 ppm,Cercospora arachidicola,0%
same,pest or weed control at 100 ppm,Rhizoctonia solani,0%
same,pest or weed control at 100 ppm,Pyricularia oryzae,0%
same,pest or weed control at 100 ppm,Phytophthora infestans,0%
"COc1cccc(OC)c1[Si](C)(C)Cn1ccnc1 [(2,6-Dimethoxyphenyl)dimethyl(1H-imidazol-1-ylmethyl)silane]",pest or weed control at 100 ppm,[1],0%
same,pest or weed control at 100 ppm,Erysiphe cichoracearum,0%
same,pest or weed control at 100 ppm,Venturia inaequalis,0%
same,pest or weed control at 100 ppm,Helminthosporium maydis,50%
same,pest or weed control at 100 ppm,Cercospora arachidicola,0%
same,pest or weed control at 100 ppm,Rhizoctonia solani,0%
same,pest or weed control at 100 ppm,Pyricularia oryzae,0%
same,pest or weed control at 100 ppm,Phytophthora infestans,50%
Fc1ccc([Si](Cn2ccnc2)(c2ccc(F)cc2)c2ccc(F)cc2)cc1 [tris(4-Fluorophenyl)(1H-imidazol-1-ylmethyl)silane],pest or weed control at 100 ppm,[1],80%
same,pest or weed control at 100 ppm,Erysiphe cichoracearum,100%
same,pest or weed control at 100 ppm,Venturia inaequalis,0%
same,pest or weed control at 100 ppm,Helminthosporium maydis,0%
same,pest or weed control at 100 ppm,Cercospora arachidicola,0%
same,pest or weed control at 100 ppm,Rhizoctonia solani,0%
same,pest or weed control at 100 ppm,Pyricularia oryzae,0%
same,pest or weed control at 100 ppm,Phytophthora infestans,0%
"CC(C)(C)O[Si](C)(Cn1ccnc1)c1ccccc1 (stereo not drawn) [(1,1-Dimethylethoxy)(1H-imidazol-1-ylmethyl)methyl(phenyl)silane]",pest or weed control at 100 ppm,[1],0%
same,pest or weed control at 100 ppm,Erysiphe cichoracearum,100%
same,pest or weed control at 100 ppm,Venturia inaequalis,0%
same,pest or weed control at 100 ppm,Helminthosporium maydis,0%
same,pest or weed control at 100 ppm,Cercospora arachidicola,0%
same,pest or weed control at 100 ppm,Rhizoctonia solani,0%
same,pest or weed control at 100 ppm,Pyricularia oryzae,0%
same,pest or weed control at 100 ppm,Phytophthora infestans,0%
"C[Si](C)(Cn1ccnc1)c1ccc(-c2ccccc2)cc1.[Cl][Cu] [1:1 complex of (1,1'-Biphenyl-4-yl)dimethyl(1H-imidazol-1-ylmethyl)silane and Cuprous Chloride]",% Control Wheat Leaf Rust,[1],100%
same,% Control Cucumber Powdery Mildew,Erysiphe cichoracearum; 100 ppm,100%
same,% Control Apple Scab,Venturia inaequalis,100%
same,% Control of Southern Corn Leaf Blight,Helminthosporium maydis; 100 ppm,0%
same,% Control Peanut Early Leafspot,Cercospora arachidicola; 100 ppm,100%
same,% Control of Rice Sheath Blight,Rhizoctonia solani; 100 ppm,50%
same,% Control of Tomato Late Blight,Phytophthora infestans; 100 ppm,0%
CCCCCCCCCCCCCCCCCC[Si](C)(C)Cn1ccnc1 [Dimethyl(1H-imidazol-1-ylmethyl)octadecylsilane],pest or weed control at 100 ppm,[1],0%
same,pest or weed control at 100 ppm,Erysiphe cichoracearum,0%
same,pest or weed control at 100 ppm,Venturia inaequalis,80%
same,pest or weed control at 100 ppm,Helminthosporium maydis,0%
same,pest or weed control at 100 ppm,Cercospora arachidicola,0%
same,pest or weed control at 100 ppm,Rhizoctonia solani,100%
same,pest or weed control at 100 ppm,Pyricularia oryzae,80%
same,pest or weed control at 100 ppm,Phytophthora infestans,0%
"C[Si](Cn1ccnc1)(c1ccc(-c2ccccc2)cc1)c1ccc(-c2ccccc2)cc1 [bis(1,1'-Biphenyl-4-yl)(1H-imidazol-1-ylmethyl)methylsilane]",pest or weed control at 100 ppm,[1],0%
same,pest or weed control at 100 ppm,Erysiphe cichoracearum,0%
same,pest or weed control at 100 ppm,Venturia inaequalis,50%
same,pest or weed control at 100 ppm,Helminthosporium maydis,0%
same,pest or weed control at 100 ppm,Cercospora arachidicola,60%
same,pest or weed control at 100 ppm,Rhizoctonia solani,0%
same,pest or weed control at 100 ppm,Pyricularia oryzae,0%
same,pest or weed control at 100 ppm,Phytophthora infestans,0%
"C[Si](C)(Cn1ccnc1)c1ccccc1-c1ccccc1 [(1,1'-Biphenyl-2-yl)dimethyl(1H-imidazol-1-ylmethyl)silane]",pest or weed control at 100 ppm,[1],0%
same,pest or weed control at 100 ppm,Erysiphe cichoracearum,50%
same,pest or weed control at 100 ppm,Venturia inaequalis,90%
same,pest or weed control at 100 ppm,Helminthosporium maydis,0%
same,pest or weed control at 100 ppm,Cercospora arachidicola,30%
same,pest or weed control at 100 ppm,Rhizoctonia solani,90%
same,pest or weed control at 100 ppm,Pyricularia oryzae,90%
same,pest or weed control at 100 ppm,Phytophthora infestans,0%
CSc1ccc([Si](C)(C)Cn2ccnc2)cc1 [Dimethyl(1H-imidazol-1-ylmethyl)(4-methylthiophenyl)silane],pest or weed control at 100 ppm,[1],0%
same,pest or weed control at 100 ppm,Erysiphe cichoracearum,100%
same,pest or weed control at 100 ppm,Venturia inaequalis,0%
same,pest or weed control at 100 ppm,Helminthosporium maydis,0%
same,pest or weed control at 100 ppm,Cercospora arachidicola,0%
same,pest or weed control at 100 ppm,Rhizoctonia solani,0%
same,pest or weed control at 100 ppm,Pyricularia oryzae,0%
same,pest or weed control at 100 ppm,Phytophthora infestans,0%
C[Si](Cn1ccnc1)(c1ccc(Cl)cc1)c1ccccc1Cl (stereo not drawn) [(2-Chlorophenyl)(4-chlorophenyl)(1H-imidazol-1-ylmethyl)methylsilane],pest or weed control at 100 ppm,[1],100%
same,pest or weed control at 100 ppm,Erysiphe cichoracearum,100%
same,pest or weed control at 100 ppm,Venturia inaequalis,80%
same,pest or weed control at 100 ppm,Helminthosporium maydis,0%
same,pest or weed control at 100 ppm,Cercospora arachidicola,80%
same,pest or weed control at 100 ppm,Rhizoctonia solani,0%
same,pest or weed control at 100 ppm,Phytophthora infestans,0%
CC(C)O[Si](Cn1ccnc1)(OC(C)C)c1ccccc1 [(1H-Imidazol-1-ylmethyl)phenylbis(2-propoxy)silane],pest or weed control at 100 ppm,[1],0%
same,pest or weed control at 100 ppm,Erysiphe cichoracearum,0%
same,pest or weed control at 100 ppm,Venturia inaequalis,70%
same,pest or weed control at 100 ppm,Helminthosporium maydis,0%
same,pest or weed control at 100 ppm,Cercospora arachidicola,0%
same,pest or weed control at 100 ppm,Rhizoctonia solani,0%
same,pest or weed control at 100 ppm,Phytophthora infestans,0%
"C[Si](Cn1ccnc1)(c1ccc(F)cc1)c1ccc(-c2ccccc2)cc1 (stereo not drawn) [(1,1'-Biphenyl-4-yl)(4-fluorophenyl)(1H-imidazol-1-ylmethyl)methylsilane]",pest or weed control at 100 ppm,[1],80%
same,pest or weed control at 100 ppm,Erysiphe cichoracearum,100%
same,pest or weed control at 100 ppm,Venturia inaequalis,50%
same,pest or weed control at 100 ppm,Helminthosporium maydis,70%
same,pest or weed control at 100 ppm,Cercospora arachidicola,100%
same,pest or weed control at 100 ppm,Rhizoctonia solani,0%
same,pest or weed control at 100 ppm,Phytophthora infestans,0%
